Consider two compounds from patent publication US20080171783A1, “COMPOSITIONS AND METHODS FOR TREATING HYPERPROLIFERATIVE DISEASE” (Migenix Inc., priority 2006, published 2008).

SMILES strings stand for the structures.

For one assay, the system named is HL-60. Description: Cell viability by XTT. It is filed as cell-based. The settings on record: HL-60, single dose 10 μM, four days. As for the experimental part:
(§1) Compounds were solubilized at […] in DMSO and were stored at −20° C. Test compounds were initially tested at a single concentration of 10 μM and a subset of test compounds were further tested in selected cell lines using a six concentration dose response curve.
(§2) Cell Preparation Cancer cell lines were passaged in T-75 flasks prior to use in the assay in cell culture medium recommended by the ATCC (American Type Culture Collection; Table 6). On the day preceding the assay, the cells were split 1:2 to assure they were in an exponential growth phase at the time of compound treatment. Total cell and viability quantification was performed using a hemocytometer and Trypan Blue dye exclusion. […] The cells were resuspended at the appropriate cell per mL (Table 6) in tissue culture medium and added to the microtitre plates in a volume of 100 μL. Colon cell lines were incubated overnight at 37° C./5% CO2 to allow for cell adherence to the plates.
(§3) Plate Format: Each plate contains cell control wells (cells only), drug calorimetric control wells (drug only) as well as experimental wells (drug plus cells). Samples were tested in triplicate at a concentration of 10 μM and five half-logarithmic dilutions.
(§4) Cell Viability by XTT: Following incubation at 37° C. in a 5% CO2 incubator for four days, the test plates were stained with the tetrazolium dye XTT (2,3-bis(2-methoxy-4-nitro-5-sulfophenyl)-5-[(phenylamino)carbonyl]-2H-tetrazolium hydroxide). XTT-tetrazolium was metabolized by the mitochondrial enzymes of metabolically active cells to a soluble formazan product. XTT solution was prepared daily as a stock of 1 mg/mL in RPMI1640. Phenazine methosulfate (PMS) solution was prepared at 0.15 mg/mL in phosphate buffered saline (PBS) and stored in the dark at −20° C. XTT/PMS stock was prepared immediately before use by adding 40 μL of PMS per mL of XTT solution. Fifty (50) microlitres of XTT/PMS was added to each well of the plate and the plate was reincubated for 4 hours at 37° C. Plates were sealed with adhesive plate sealers and shaken gently or inverted several times to mix the soluble formazan product and the plate was read spectrophotometrically at 450/650 nm with a Molecular Devices Vmax plate reader. […] An Average Response Factor (ARF) was calculated for each compound by averaging the ten Percentage of Control values for the cell lines. […] Deviations below 100% control indicate activity. The concentration of each tested compound is 10 μM.
On the technique in general: Tetrazolium dyes change colour on reduction, which living cells bring about.

For the next assay, the system named is HCT-15. Description: Cell viability by XTT. It is filed as cell-based. The settings on record: HCT-15, single dose 10 μM, four days. As for the experimental part: as §1, §2, §3, §4
A further assay has as its system UACC-257. The assay is described as follows: NCI In Vitro Cell Line Screening (SRB). As to conditions: UACC-257, Melanoma, 48 h. The format is cell-based, human.
The next assay concerns HT29. The assay is described as follows: cells. As for the experimental part: as §1, §2, §3, §4
Another assay has as its system Jurkat. The assay is described as follows: Cell viability by XTT. On the procedure: as §1, §2, §3, §4
A further assay addresses T1, human polymerase alpha (Homo sapiens, UniProt P09884).
T1 construct: purchased Replizyme Ltd (Heslington, York, UK)
T1 sequence (P09884 1-1462): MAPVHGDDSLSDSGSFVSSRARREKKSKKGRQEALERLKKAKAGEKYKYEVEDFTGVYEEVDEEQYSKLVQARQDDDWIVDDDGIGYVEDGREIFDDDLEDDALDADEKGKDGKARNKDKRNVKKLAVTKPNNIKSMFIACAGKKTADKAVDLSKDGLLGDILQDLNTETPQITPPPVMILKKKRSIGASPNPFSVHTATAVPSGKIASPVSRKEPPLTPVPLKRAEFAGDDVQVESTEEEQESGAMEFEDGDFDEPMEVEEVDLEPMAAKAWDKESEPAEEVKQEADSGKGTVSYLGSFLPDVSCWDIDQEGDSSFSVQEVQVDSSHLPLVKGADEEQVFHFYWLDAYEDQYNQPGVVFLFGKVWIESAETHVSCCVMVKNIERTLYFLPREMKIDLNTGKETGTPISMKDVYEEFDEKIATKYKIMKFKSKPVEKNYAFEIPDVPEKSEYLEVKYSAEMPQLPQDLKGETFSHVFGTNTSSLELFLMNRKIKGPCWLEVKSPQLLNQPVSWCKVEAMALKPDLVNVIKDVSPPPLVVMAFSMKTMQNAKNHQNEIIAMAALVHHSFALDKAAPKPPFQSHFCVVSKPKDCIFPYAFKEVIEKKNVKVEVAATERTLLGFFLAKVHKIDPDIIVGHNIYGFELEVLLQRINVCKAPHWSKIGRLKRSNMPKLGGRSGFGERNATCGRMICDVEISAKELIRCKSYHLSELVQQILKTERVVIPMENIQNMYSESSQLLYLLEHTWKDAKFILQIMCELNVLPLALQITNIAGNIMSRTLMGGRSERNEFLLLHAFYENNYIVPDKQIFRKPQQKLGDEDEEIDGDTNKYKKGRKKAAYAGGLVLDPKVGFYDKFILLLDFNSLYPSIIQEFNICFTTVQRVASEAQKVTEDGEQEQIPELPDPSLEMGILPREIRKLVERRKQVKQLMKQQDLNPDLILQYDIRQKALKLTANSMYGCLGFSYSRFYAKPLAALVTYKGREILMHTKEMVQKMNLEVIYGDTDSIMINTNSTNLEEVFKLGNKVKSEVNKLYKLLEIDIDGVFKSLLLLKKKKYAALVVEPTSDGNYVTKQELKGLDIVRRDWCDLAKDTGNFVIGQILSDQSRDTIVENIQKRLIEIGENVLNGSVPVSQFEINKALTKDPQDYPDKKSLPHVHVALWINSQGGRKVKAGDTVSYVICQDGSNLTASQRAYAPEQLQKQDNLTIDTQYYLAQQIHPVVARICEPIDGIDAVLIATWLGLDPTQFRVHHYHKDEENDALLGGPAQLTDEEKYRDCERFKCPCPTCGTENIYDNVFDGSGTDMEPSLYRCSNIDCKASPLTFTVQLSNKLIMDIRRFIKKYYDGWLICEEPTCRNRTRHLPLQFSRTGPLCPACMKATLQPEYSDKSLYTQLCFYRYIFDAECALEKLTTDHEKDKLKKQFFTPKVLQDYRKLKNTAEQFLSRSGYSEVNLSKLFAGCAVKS
Description: Human polymerase alpha inhibition (Replizyme kit). It is filed as biochemical. As to conditions: dose response. As for the experimental part:
Calf polymerase alpha and human polymerase alpha investigations were performed with a kit available from Replizyme Ltd (Heslington, York, UK).

Broadly, the GI50 is the concentration at which growth is held to half of that of the control. Low values mean more potent growth inhibition, high ones less potent growth inhibition. Broadly, the TGI is the concentration giving total growth inhibition. The low end stands for more potent growth arrest, the high end for less potent growth arrest. Take `CC(C)(C)c1ccc(NC(=O)[C@H](CCCCN)NC(=O)OCC2c3ccccc3-c3ccccc32)cc1` [Compound 105, (S)-[5-AMINO-1-(4-TERT-BUTYL-PHENYLCARBAMOYL)-PENTYL]-CARBAMIC ACID 9H-FLUOREN-9-YLMETHYL ESTER]: the “Percentage of Cell Control” value with HL-60 is 19.6%; in the assay with HCT-15, 85.6%; in the assay with HT29 (HT29, single dose 10 μM, four days) it was 13.8%; in the assay with Jurkat (single dose 10 μM, four days), 23.5%. In the assay with UACC-257 (Homo sapiens), the GI50 stood at 1.75 µM. In the assay with UACC-257, the TGI turned out to be 3.70 µM. Also, the CC50 in the assay on HT29 (Homo sapiens, HT-29, read-out: Activity (TC50)) is 8.5 µM; in the assay with Jurkat (Homo sapiens, read-out: Activity (TC50)) it was 2.5 µM.

For orientation: IC50 means the concentration that inhibits the measured activity by half. A lower IC50 goes with higher potency. `Cc1cc2cc(NC(=O)[C@H](CCCNC(=O)CN)NC(=O)Nc3ccc4c(c3)Cc3ccccc3-4)ccc2[nH]1` [Compound 297, (S)-5-(2-AMINO-ACETYLAMINO)-2-[3-(9H-FLUOREN-2-YL)-UREIDO]-PENTANOIC ACID (2-METHYL-1H-INDOL-5-YL)-AMIDE] returned a 50% inhibitory concentration (IC50) against human polymerase alpha of 10 µM.
